Data as given in patent US6608043B1, “Remedies for joint diseases” (Takata Seiyaku Co., Ltd., priority 1999, dated 2003).

Legend:
[1] = tested on: synovial cells (OASC) from osteoarthritis (OA) patients; experiment: Synovial cell proliferation inhibition (MTT method), OASC; assay type: cell-based, human; conditions: MTT on days 4, 8 and 12, HA/Zn and Na-HA 10-300 μg/ml, Zn at 1/10 of these, vs non-drug addition group
Experimental: (§1) The effects of the complex of hyaluronic acid and zinc (HA/Zn) of the present invention, and the effects of sodium hyaluronate (Na-HA) and zinc (Zn) as comparison controls were tested on synovial cells (RASC) from rheumatoid arthritis (RA) patients, synovial cells (OASC) from osteoarthritis (OA) patients, and synovial cells (TASC) from traumatic arthritis (TA) patients.
(§2) The test substances used consisted of HA/Zn (Lot No. A65242, 1% solution, Gedeon-Richter, Ltd.), sodium hyaluronate (Na-HA, Lot No. KK4001, Q.P. Corp.), and zinc chloride (Zn, Lot No. ESH1413, Wako Pure Chemical Ind., Ltd.). Quantitative values of the contents of hyaluronic acid and zinc contained in the above-mentioned HA/Zn solution (specific gravity; d^2020=1.0134) were determined in advance. Since the amount of hyaluronic acid was 99% (105.0% when calculated as sodium hyaluronate) and the amount of zinc was 1.07 mg/ml when the above-mentioned 1% is assigned a value of 100, the weight ratio of hyaluronic acid to zinc in said HA/Zn was considered to be 10:1 (Na-HA:Zn). The test substances were tested at concentrations of 10 μg/ml, 30 μg/ml, 100 μg/ml, 150 μg/ml, 200 μg/ml, 250 μg/ml and 300 μg/ml for HA/Zn, the same concentrations as HA/Zn for Na-HA, and at 1/10 the concentrations of HA/Zn for Zn.
(§3) Synovial membrane tissue was sampled from the knee joint of rheumatoid arthritis (RA) patients (5 cases, 65.6±10.6 years old) and osteoarthritis (OA) patients (6 cases, 73.4±8.9 years old) during artificial joint replacement surgery, and from the knee joint of traumatic arthritis (TA) patients (6 cases, 25.6±6.7 years old) during arthroscopic surgery. […]
(§4) The synovial cells (SC) were inoculated into a microplate (96 wells, Iwaki) at a concentration of 3.55×10^3 cells/0.1 ml/well (1×10^4 cells/cm^2), and pre-cultured for 2 days at 37° C. in a vapor phase consisting of 5% CO2 and 95% air. […] The results were expressed with the optical absorbance that indicated a positive correlation with the number of cells. […]

[2] = tested on: synovial cells (RASC) from rheumatoid arthritis (RA) patients; experiment: Synovial cell proliferation inhibition (MTT method), RASC; assay type: cell-based, human; conditions: MTT on days 4, 8 and 12, HA/Zn and Na-HA 10-300 μg/ml, Zn at 1/10 of these, vs non-drug addition group
Experimental: as §1, §2, §3, §4

[3] = tested on: matrix metalloproteinase MMP-9; experiment: Suppression of MMP-9 in synovial cell culture supernatant (EIA); assay type: cell-based, human; conditions: for production of MMP-9 relative to control (non-drug addition = 100%): culture supernatant day 8, HA/Zn and Na-HA 100 μg/ml, Zn 10 μg/ml, divided by MTT absorbance
Experimental: Synovial cells were inoculated into culture dishes (diameter: 35 mm, Iwaki) to a concentration of 10×10^4 cells/2 ml/dish (1×10^4 cells/cm^2), and pre-cultured for 2 days at 37° C. in a vapor phase consisting of 5% CO2 and 95% air. Later, the media were replaced with media containing each drug, and the culture supernatants were sampled on day 8 of culturing under the same conditions followed by storage at −80° C. until measurement. The added concentrations of HA/Zn and Na-HA were 100 μg/ml (final concentration), while the concentration of Zn was 10 μg/ml (final concentration). The amount of matrix metalloproteinase MMP-9 in the supernatant was measured using EIA (Enzyme Immunoassay). In order to examine the results calculated as concentration in the supernatant per cell, the results were converted to values divided by the optical absorbance value of synovial cells by MTT at that time. In addition, this value was further expressed as a relative value to the control of the individual value of each drug addition group while assigning the control (non-drug addition group) a value of 100%.

[4] = tested on: synovial cells (TASC) from traumatic arthritis (TA) patients; experiment: Synovial cell proliferation inhibition (MTT method), TASC; assay type: cell-based, human; conditions: MTT on days 4, 8 and 12, HA/Zn and Na-HA 10-300 μg/ml, Zn at 1/10 of these, vs non-drug addition group
Experimental: as §1, §2, §3, §4

[5] = Systemic toxicity after subcutaneous administration, mice; assay type: in vivo; conditions: physically allowed maximum dose 200 mg/kg
Experimental: (§5) Administration methods normally performed for pharmaceuticals can be used for the hyaluronic acid/zinc complex of the present invention. Namely, the above-mentioned complex can be administered orally or parenterally, and administration by injection is particularly preferable. The effective dose of the hyaluronic acid/zinc complex of the present invention is 0.01 mg to 1 mg, and preferably 0.03 mg to 0.5 mg per joint per administration per person. […] The agent for treatment of arthritic disease and matrix metalloproteinase MMP-9 suppresser of the present invention can contain 0.001% to 1%, and preferably 0.01% to 0.5%, of the hyaluronic acid/zinc complex of the present invention with a routinely used pharmaceutical carrier. Examples of routinely used pharmaceutical carriers include bases typically used in therapeutic applications such as chitosan, starch, pectin, HPMC and sodium alginate, binders such as tragacanth gum, gum arabic, cornstarch and gelatin, vehicles such as crystalline cellulose and mannitol, disintegrating agents such as cornstarch, α-starch and alginic acid, lubricants such as magnesium stearate, sweeteners such as sucrose, lactose and saccharin, flavorings such as peppermint, mint and cherry, and antiseptics.

[6] = Systemic toxicity after subcutaneous administration, rats; assay type: in vivo; conditions: physically allowed maximum dose 200 mg/kg
Experimental: as §5

For `[Cl-].[Cl-].[Zn+2]` [Zn, zinc chloride], the “proliferation of synovial cells (inhibition)” value (“proliferation … (inhibition)” below) [1] was “significant inhibition”, the “proliferation … (inhibition)” value [2] was “significant inhibition” and the “production of MMP-9 relative to control (non-drug addition = 100%)” value [3] was 50%. The “proliferation … (inhibition)” value [4] was “significant inhibition”.

In the case of “complex of hyaluronic acid and zinc [HA/Zn]”, the “proliferation … (inhibition)” value [1] is reported as “significantly inhibited dependent on the amount added”, the “proliferation … (inhibition)” value [2] is reported as “significantly inhibited dependent on the amount added” and the “production of MMP-9 relative to control (non-drug addition = 100%)” value [3] is reported as 0%. For the same compound, the “concentration at which MMP-9 is suppressed” value ([3]; synovial cells originating in rheumatoid arthritis, in vitro) was no more than 100 µg/mL, the “symptoms of systemic toxicity” value [5] was “not observed to cause symptoms of systemic toxicity” and the “symptoms of systemic toxicity” value [6] was “not observed to cause symptoms of systemic toxicity”. For the same compound, the “proliferation … (inhibition)” value [4] was “significantly inhibited dependent on the amount added”.

With sodium hyaluronate [Na-HA] the “proliferation … (inhibition)” value [1] was “not significantly inhibited”, the “proliferation … (inhibition)” value [2] was “not significantly inhibited” and the “production of MMP-9 relative to control (non-drug addition = 100%)” value [3] was 100%. The “proliferation … (inhibition)” value [4] was “not significantly inhibited”.
